According to patent US8841302B2, “HCV inhibitor and therapeutic agent combinations” (PTC Therapeutics, Inc., priority 2009, dated 2014):

System: HCV replicon RNA in replicon cells
Experiment: Replicon RNA response to antiviral agent(s), real time PCR (Taqman assay)
Format: cell-based
Settings: replicon cells treated 3 days
Description: Replicon cells were seeded at ˜5000 cells/well in 96-well collagen I-coated Biocoat plates (Becton Dickinson). At 24 hrs post-seeding, a series of replicon cells were treated with a HCV protease inhibitor and a HCV inhibitor. The final concentration of DMSO was 0.5%, fetal bovine serum was 10%, and G418 (an aminoglycoside used as a selective agent) was 500 μg/mL.
To each concentration of Compound 10p, HCV inhibitor Compound 31 was titrated. After 3 days, the cells were washed with PBS and lysed in 1× Cell Lysis Buffer (Ambion cat #8721).
The replicon RNA level was measured using real time PCR (Taqman assay). The ampicon was located in NS5b. The PCR primers used were: 5B.2F, ATGGACAGGCGCCCTGA (SEQ ID NO: 1); 5B.2R, […] (SEQ ID NO: 2); the probe sequence was FAM-labeled CACGCCATGCGCTGCGG (SEQ ID NO: 3). GAPDH RNA was used as endogenous control and was amplified in the same reaction as NS5b (multiplex PCR) using primers and VIC-labeled probe recommended by the manufacturer (PE Applied Biosystem). The real-time RT-PCR reactions were run on ABI PRISM 7900HT Sequence Detection System using the following program: 48° C. for 30 min, 95° C. for 10 min, 40 cycles of 95° C. for 15 sec, 60° C. for 1 min. The ΔCT values (CT5B-CTGAPDH) were plotted against test compound concentration and fitted to the sigmoid dose response model using Graphpad PRISM software (Graphpad Software Inc.). The half maximal inhibitory concentration (IC50) is the concentration necessary to achieve ΔCT=1 over the projected baseline. The 90% maximal inhibitory concentration (IC90) is the concentration necessary to achieve ΔCT=3.2 over the baseline. Alternatively, to quantitate the absolute amount of replicon RNA, a standard curve was established by including serially diluted T7 transcripts of replicon RNA in the Taqman assay. All Taqman reagents were from PE Applied Biosystem.

Structure (SMILES)	relative inhibition (logarithmic scale) of replicon RNA level (Compound 31 0.045 μM in combination with Cpd 10p 0.19 μM)	relative inhibition (logarithmic scale) of replicon RNA level (Compound 31 0.045 μM in combination with Cpd 10p 1.5 μM)	relative inhibition (logarithmic scale) of replicon RNA level (Compound 31 0.405 μM in combination with Cpd 10p 0.19 μM)	relative inhibition (logarithmic scale) of replicon RNA level (Compound 31 0.405 μM in combination with Cpd 10p 1.5 μM)	relative inhibition (logarithmic scale) of replicon RNA level (Cpd 10p 0.19 μM alone (Compound 31 0 μM))	relative inhibition (logarithmic scale) of replicon RNA level (Cpd 10p 1.5 μM alone (Compound 31 0 μM))
N#Cc1c(-c2ccc(S(=O)(=O)NC(CF)CF)cn2)n(C2CCC2)c2cc(OC(F)F)ccc12 [Compound 31, 6-[3-cyano-1-cyclobutyl-6-(difluoromethoxy)-1H-indol-2-yl]-N-(1,3-difluoropropan-2-yl)pyridine-3-sulfonamide]	−1.16	−1.72	−1.73	−2.02	–	–
CC(C)(C)NC(=O)N[C@H](C(=O)N1C[C@H]2[C@@H]([C@H]1C(=O)NC(CC1CCC1)C(=O)C(N)=O)C2(C)C)C(C)(C)C (stereo partly drawn) [Cpd 10p, (1R,2S,5S)-N-(4-amino-1-cyclobutyl-3,4-dioxobutan-2-yl)-3-((S)-2-(3-tert-butylureido)-3,3-dimethylbutanoyl)-6,6-dimethyl-3-azabicyclo[3.1.0]hexane-2-carboxamide, reference compound]	–	–	–	–	−0.11	−1.52
